From US20140023611A1 (priority 2010, published 2014)

Molecular target: T1, rat NaP2b (SLC34A2) (Rattus norvegicus, UniProt Q9JJ09)
T1 construct: host or cells: HEK293
T1 sequence (Q9JJ09 1-695): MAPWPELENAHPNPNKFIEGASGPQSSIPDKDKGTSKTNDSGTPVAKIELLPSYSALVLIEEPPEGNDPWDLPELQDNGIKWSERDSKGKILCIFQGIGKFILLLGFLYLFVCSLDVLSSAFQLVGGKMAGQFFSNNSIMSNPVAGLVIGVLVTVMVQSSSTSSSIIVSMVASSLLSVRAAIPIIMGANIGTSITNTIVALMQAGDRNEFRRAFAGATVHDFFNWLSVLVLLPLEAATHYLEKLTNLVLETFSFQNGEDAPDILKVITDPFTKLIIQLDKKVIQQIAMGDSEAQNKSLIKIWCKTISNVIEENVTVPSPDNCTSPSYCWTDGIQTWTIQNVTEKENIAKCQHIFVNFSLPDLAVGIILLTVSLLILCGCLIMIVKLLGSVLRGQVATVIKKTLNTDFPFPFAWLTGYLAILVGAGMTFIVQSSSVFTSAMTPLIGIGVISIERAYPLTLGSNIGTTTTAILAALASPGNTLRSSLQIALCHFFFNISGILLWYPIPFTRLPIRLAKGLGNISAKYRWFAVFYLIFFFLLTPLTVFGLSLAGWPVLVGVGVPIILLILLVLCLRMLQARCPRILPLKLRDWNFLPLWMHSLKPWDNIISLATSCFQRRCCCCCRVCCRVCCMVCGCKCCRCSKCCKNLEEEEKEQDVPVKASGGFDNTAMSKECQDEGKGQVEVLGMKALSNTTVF
Experiment: Inhibition of NaP2b-mediated Pi (33P) uptake in transfected HEK293 cells, rat NaP2b
Assay type: cell-based
Conditions: 33P Pi uptake, 0.1 mM phosphate, value given as pIC50 range
Method in brief: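 HEK293 cells were transiently transfected with NaP2b cDNA using Lipofectamine and grown near confluence. Compounds were tested at twelve concentrations from 0.1 nM to 30 uM in duplicate, and 33P-phosphate uptake was counted by scintillation after lysis. Results are expressed as pIC50.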

| IC50 | SMILES |
| --- | --- |
| 10 to 31.6 µM | CCN(CC)CCN(C)C(=O)c1cccc(C(=O)Nc2ccc(N3CCCCC3)cc2-c2cc(C(=O)NCc3cccc(C(F)(F)F)c3)ccn2)c1 [Example 4.1, N1-(2-(Diethylamino)ethyl)-N1-methyl-N3-(4-(piperidin-1-yl)-2-(4-((3-(trifluoromethyl)benzyl)carbamoyl)pyridin-2-yl)phenyl)isophthalamide] |
| 10 to 31.6 µM | Cc1ccc(Nc2ccnc(-c3cc(N4CCCCC4)ccc3NC(=O)c3cccc(CSCCC(=O)O)c3)c2)cc1C [Example 71, 3-((3-((2-(4-((3,4-Dimethylphenyl)amino)pyridin-2-yl)-4-(piperidin-1-yl)phenyl)carbamoyl)benzyl)thio)propanoic acid] |
| 10 to 31.6 µM | O=C(NCCOCCO)c1cccc(C(=O)Nc2ccc(Cl)cc2-c2cc(NCc3cccc(C(F)(F)F)c3)ncn2)c1 [Example 65, N1-(4-Chloro-2-(6-((3-(trifluoromethyl)benzyl)amino)pyrimidin-4-yl)phenyl)-N3-(2-(2-hydroxyethoxy)ethyl)isophthalamide] |
| 10 to 31.6 µM | CN(CCN1CCOCC1)C(=O)c1cccc(C(=O)Nc2ccc(N3CC[C@H]4CCCC[C@@H]4C3)cc2-c2cc(C(=O)NCc3cccc(C(F)(F)F)c3)ccn2)c1 [Example 111] |
| 10 to 31.6 µM | COc1c(C(=O)Nc2ccc(N3CCCCC3)cc2-c2cc(C(=O)NCc3cccc(C(F)(F)F)c3)ccn2)cccc1C(=O)N(C)CCN1CCOCC1 [Example 11.3, 2-Methoxy-N1-methyl-N1-(2-morpholinoethyl)-N3-(4-(piperidin-1-yl)-2-(4-((3-(trifluoromethyl)benzyl)carbamoyl)pyridin-2-yl)phenyl)isophthalamide] |
| 10 to 31.6 µM | COC[C@@H]1CCCN1c1ccc(NC(=O)c2cccc(C(=O)N(C)CCN3CCOCC3)c2)c(-c2cc(C(=O)NCc3cccc(C(F)(F)F)c3)ccn2)c1 [Example 102] |
| 10 to 31.6 µM | CN(CCN1CCN(S(C)(=O)=O)CC1)Cc1cccc(C(=O)Nc2ccc(N3CCCCC3)cc2-c2cc(C(=O)NCc3cccc(C(F)(F)F)c3)ccn2)n1 [Example 62, 6-((Methyl(2-(4-(methylsulfonyl)piperazin-1-yl)ethyl)amino)methyl)-N-(4-(piperidin-1-yl)-2-(4-((3-(trifluoromethyl)benzyl)carbamoyl)pyridin-2-yl)phenyl)picolinamide] |
| 10 to 31.6 µM | CC(=O)NC1CCN(Cc2cccc(C(=O)Nc3ccc(N4CCCCC4)cc3-c3cc(C(=O)NCc4cccc(C(F)(F)F)c4)ccn3)n2)CC1 [Example 57, 6-((4-Acetamidopiperidin-1-yl)methyl)-N-(4-(piperidin-1-yl)-2-(4-((3-(trifluoromethyl)benzyl)carbamoyl)pyridin-2-yl)phenyl)picolinamide] |
| 1 to 7.94 µM | CCN(CC)c1ccc(NC(=O)c2cccc(CCCOCCOCCOCCOCCNS(=O)(=O)c3ccc(CCC(=O)NCCOCCOCCOCCOCCOCCOCCOC)cc3)c2)c(-c2cc(C(=O)NCc3cccc(C(F)(F)F)c3)ccn2)c1 [Example 296, 2-(5-(diethylamino)-2-(3-(1-(4-(24-oxo-2,5,8,11,14,17,20-heptaoxa-23-azahexacosan-26-yl)phenylsulfonamido)-3,6,9,12-tetraoxapentadecan-15-yl)benzamido)phenyl)-N-(3-(trifluoromethyl)benzyl)isonicotinamide] |
| < 1 µM | CCN(CC)c1ccc(NC(=O)c2cccc(C(=O)N(C)CCO)c2)c(-c2cc(C(=O)N[C@H]3CCCc4ccccc43)ccn2)c1 [Example 194, (S)—N^1-(4-(diethylamino)-2-(4-((1,2,3,4-tetrahydronaphthalen-1-yl)carbamoyl)pyridin-2-yl)phenyl)-N^3-(2-hydroxyethyl)-N^3-methylisophthalamide] |
| 1 to 7.94 µM | O=C(O)CCSCc1cccc(C(=O)Nc2ccc(N3CCCCC3)cc2-c2cc(C(=O)NC3CCCc4ccccc43)ccn2)c1 (stereo not drawn) [Example 1.13] |
| 1 to 7.94 µM | O=C(O)CCSCc1cccc(C(=O)Nc2ccc(N3CCCCC3)cc2-c2cc(C(=O)NCc3cccc(C(F)(F)F)c3)c(F)cn2)c1 [Example 89] |
| 1 to 7.94 µM | Cc1ccc(CNC(=O)c2ccnc(-c3cc(N4CCCCC4)ccc3NC(=O)c3cccc(CSCCC(=O)O)c3)c2)cc1C [Example 1.49] |
| 1 to 7.94 µM | CN(CCN1CCOCC1)C(=O)c1cccc(C(=O)Nc2ccc(N3CCCCC3)cc2-c2cc(C(=O)NCc3ccccc3OC(F)(F)F)ccn2)c1 [Example 123, N1-(2-(4-((2-(trifluoromethoxy)benzyl)carbamoyl)pyridin-2-yl)-4-(piperidin-1-yl)phenyl)-N3-methyl-N3-(2-morpholinoethyl)isophthalamide] |
| 1 to 7.94 µM | Cc1ccc(Cl)cc1CNC(=O)c1ccnc(-c2cc(N3CCCCC3)ccc2NC(=O)c2cccc(CSCCC(=O)O)c2)c1 [Example 1.17] |
| 1 to 7.94 µM | CCN(CC)c1ccc(NC(=O)c2cccc(CCCOCCOCCOCCOCCC(=O)N3CCN(CCOCCOCCOCCOCCOCCOCCOC)C(=O)C3)c2)c(-c2cc(C(=O)NCc3cccc(C(F)(F)F)c3)ccn2)c1 [Example 258, 2-(2-(3-(16-(4-(2,5,8,11,14,17,20-heptaoxadocosan-22-yl)-3-oxopiperazin-1-yl)-16-oxo-4,7,10,13-tetraoxahexadecyl)benzamido)-5-(diethylamino)phenyl)-N-(3-(trifluoromethyl)benzyl)isonicotinamide] |
| 1 to 7.94 µM | COc1cc(C(F)(F)F)ccc1CNC(=O)c1ccnc(-c2cc(N3CCCCC3)ccc2NC(=O)c2cccc(C(=O)N(C)CCN3CCOCC3)c2)c1 [Example 121, N1-(2-(4-((2-methoxy-4-(trifluoromethyl)benzyl)carbamoyl)pyridin-2-yl)-4-(piperidin-1-yl)phenyl)-N3-methyl-N3-(2-morpholinoethyl)isophthalamide] |
| 10 to 31.6 µM | CN(CCN1CCN(C(=O)OC(C)(C)C)CC1)Cc1cccc(C(=O)Nc2ccc(N3CCCCC3)cc2-c2cc(C(=O)NCc3cccc(C(F)(F)F)c3)ccn2)c1 [Example 38, Tert-butyl 4-(2-(methyl(3-((4-(piperidin-1-yl)-2-(4-((3-(trifluoromethyl)benzyl)-carbamoyl)pyridin-2-yl)phenyl)carbamoyl)benzyl)amino)ethyl)piperazine-1-carboxylate] |
| 10 to 31.6 µM | CCCCN(C)c1ccc(NC(=O)c2cccc(C(=O)N(C)CCN3CCOCC3)c2)c(-c2cc(C(=O)NCc3cccc(C(F)(F)F)c3)ccn2)c1 [Example 127, N1-(4-(butyl(methyl)amino)-2-(4-(3-(trifluoromethyl)benzylcarbamoyl)pyridin-2-yl)phenyl)-N3-methyl-N3-(2-morpholinoethyl)isophthalamide] |
| 1 to 7.94 µM | O=C(O)CCNC(=O)Cc1cccc(SCc2cccc(C(=O)Nc3ccc(N4CCCCC4)cc3-c3cc(C(=O)NCc4cccc(C(F)(F)F)c4)ccn3)c2)c1 [Example 140] |
| 1 to 7.94 µM | CN(CCN1CCN(S(C)(=O)=O)CC1)C(=O)c1cccc(C(=O)Nc2ccc(N3CCCCC3)cc2-c2cc(C(=O)NCc3cccc(C(F)(F)F)c3)ccn2)c1 [Example 83, N1-methyl-N1-(2-(4-(methylsulfonyl)piperazin-1-yl)ethyl)-N3-(4-(piperidin-1-yl)-2-(4-(3-(trifluoromethyl)benzylcarbamoyl)pyridin-2-yl)phenyl)isophthalamide] |
| 10 to 31.6 µM | O=C(O)CCSCc1cccc(C(=O)Nc2ccc(N3CCCCC3)cc2-c2nccc(C(=O)NCc3cccc(C(F)(F)F)c3)c2F)c1 [Example 88] |
| 1 to 7.94 µM | CN(CCN1CCOCC1)C(=O)c1cccc(C(=O)Nc2ccc(OC3CCCC3)cc2-c2cc(C(=O)N[C@H]3CCCc4ccccc43)ccn2)c1 [Example 133, (S)—N^1-(4-(cyclopentyloxy)-2-(4-((1,2,3,4-tetrahydronaphthalen-1-yl)carbamoyl)pyridin-2-yl)phenyl)-N^3-methyl-N^3-(2-morpholinoethyl)isophthalamide] |
| 1 to 7.94 µM | Cc1nc(SCc2cccc(C(=O)Nc3ccc(N4CCCCC4)cc3-c3cc(C(=O)NCc4cccc(C(F)(F)F)c4)ccn3)c2)sc1CC(=O)O [Example 8.16] |
| 1 to 7.94 µM | CCN(CC)c1ccc(NC(=O)c2cccc(C(=O)N(C)CCN(C)CCOCCOCCOCCNC(N)=O)c2)c(-c2cc(C(=O)N[C@H]3CCCc4ccccc43)ccn2)c1 [Example 224, (S)—N1-(1-amino-14-methyl-1-oxo-5,8,11-trioxa-2,14-diazahexadecan-16-yl)-N3-(4-(diethylamino)-2-(4-(1,2,3,4-tetrahydronaphthalen-1-ylcarbamoyl)pyridin-2-yl)phenyl)-N1-methylisophthalamide] |
| 10 to 31.6 µM | CN(CCN1CCOCC1)C(=O)c1cccc(C(=O)Nc2ccc(N3CCN(c4ncccn4)CC3)cc2-c2cc(C(=O)NCc3cccc(C(F)(F)F)c3)ccn2)c1 [Example 96] |
| < 1 µM | COCCN(CCOC)CCN(C)C(=O)c1cccc(C(=O)Nc2ccc(N3CCCCC3)cc2-c2cc(C(=O)N[C@H]3CCCc4ccccc43)ccn2)c1 [Example 217, (S)—N1-(2-(bis(2-methoxyethyl)amino)ethyl)-N1-methyl-N3-(4-(piperidin-1-yl)-2-(4-(1,2,3,4-tetrahydronaphthalen-1-ylcarbamoyl)pyridin-2-yl)phenyl)isophthalamide] |
